Experimental data taken from US8685986B2, “Medical composition for treatment or prophylaxis of glaucoma” (Ube Industries, Ltd., priority 2009, dated 2014).
Counter-ions that a name gives are not always drawn. Like-named read-outs stand apart in the source and are kept apart here.

What was measured:
human EP4 receptor = human EP4 receptor (Homo sapiens (Human), UniProt P35408); assay: Measurement of EP4 receptor binding affinity ([3H]PGE2 displacement, membrane fraction of Chem-1 cells)
Description: (§1) With regard to EP3 and EP4 receptors, measurements of receptor binding affinity were carried out according to the following methods in the same manner as in Test example 1.
(§2) The membrane fraction was recovered on glass fiber filter paper (GF/B, available from Whatman PLC) pretreated with 0.3% polyethyleneimine by using a cell harvester (M30R, available from Brandel Inc.), and after washing with a buffer solution (50 mM HEPES-NaOH (pH 7.4), 500 mM NaCl, 0.1% BSA), radioactivity was measured with a liquid scintillation analyzer (2000CA, available from Packard). […] The dissociation constant (Kd value) was calculated by Scatchard analysis.

human EP3 receptor = human EP3 receptor (Homo sapiens (Human), UniProt P43115); assay: Measurement of EP3 receptor binding affinity ([3H]PGE2 displacement, membrane fraction of Chem-1 cells)
Description: as §1
as §2, with “Tris-HCl” for “HEPES-NaOH”, “7.4)),” for “7.4), 500 mM NaCl, 0.1% BSA),”

human EP2 receptor [1] = target: T1, human EP2 receptor (Homo sapiens (Human), UniProt P43116); assay: Measurement of EP2 agonist activity (cAMP amount in HEK 293 cells); type: cell-based; conditions: cAMP increase in HEK 293 cells expressing human EP2 receptor, 30 minutes
Description: Measurement of EP2 agonist activity was carried out according to the method of Wilson et al. (European Journal of Pharmacology, 501, 49 (2004)). HEK 293 cells (ES-562-C, available from Euroscreen S.A.) expressed human EP2 receptor were cultured in a MEM medium containing 10% FBS and seeded at 2×10^4 cells per each well of a 96-well plate. On the next day, the medium was replaced with serum-free MEM medium containing 3-isobutyl-1-methylxanthine (final concentration: 500 μM) and after culturing for 30 minutes, a test compound dissolved in dimethylsulfoxide was added followed by allowing to stand undisturbed in a carbon dioxide gas incubator. After 30 minutes, an amount of cAMP in the cells was measured with a cAMP Biotrak EIA System kit (available from GE Healthcare Bioscience).

human EP2 receptor [2] = target: T1, human EP2 receptor; assay: Measurement of EP2 receptor binding affinity ([3H]PGE2 displacement, membrane fraction of HEK293 cells)
Description: Measurement of EP2 receptor binding affinity was carried out according to the method of Abramovitz et al. (Biochimica et Biophysica Acta, 1483, 285 (2000)). […] The membrane fraction was recovered on glass fiber filter paper (GF/B, available from Whatman PLC) using a cell harvester (M30R, available from Brandel Inc.), and after washing with a buffer solution (10 mM MES-KOH (pH 6.0), 10 mM MgCl2), radioactivity was measured with a liquid scintillation analyzer (2000CA, available from Packard). […] The dissociation constant (Kd value) was calculated by Scatchard analysis.

Chain of human EP3 receptor (P43115 whole entry): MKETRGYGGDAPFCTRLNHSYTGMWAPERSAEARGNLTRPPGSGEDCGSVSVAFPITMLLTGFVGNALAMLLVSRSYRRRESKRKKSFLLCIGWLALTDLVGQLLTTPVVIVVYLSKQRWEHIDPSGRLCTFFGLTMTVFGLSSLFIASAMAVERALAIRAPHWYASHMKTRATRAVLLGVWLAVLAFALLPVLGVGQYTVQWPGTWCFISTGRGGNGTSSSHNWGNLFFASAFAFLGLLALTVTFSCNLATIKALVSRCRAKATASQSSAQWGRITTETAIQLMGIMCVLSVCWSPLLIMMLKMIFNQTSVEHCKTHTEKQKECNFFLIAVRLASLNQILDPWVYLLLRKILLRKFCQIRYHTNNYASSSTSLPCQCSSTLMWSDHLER
T1 sequence (P43116 whole entry): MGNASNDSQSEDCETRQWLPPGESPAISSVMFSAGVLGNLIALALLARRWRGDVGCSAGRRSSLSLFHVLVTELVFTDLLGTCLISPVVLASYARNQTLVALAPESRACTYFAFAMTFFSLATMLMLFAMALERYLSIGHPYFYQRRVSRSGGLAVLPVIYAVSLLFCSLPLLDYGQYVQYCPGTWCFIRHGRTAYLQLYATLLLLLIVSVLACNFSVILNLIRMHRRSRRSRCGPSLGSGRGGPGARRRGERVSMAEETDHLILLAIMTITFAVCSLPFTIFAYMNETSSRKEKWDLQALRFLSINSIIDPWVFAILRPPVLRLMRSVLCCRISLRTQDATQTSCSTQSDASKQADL
Chain of human EP4 receptor (P35408 whole entry): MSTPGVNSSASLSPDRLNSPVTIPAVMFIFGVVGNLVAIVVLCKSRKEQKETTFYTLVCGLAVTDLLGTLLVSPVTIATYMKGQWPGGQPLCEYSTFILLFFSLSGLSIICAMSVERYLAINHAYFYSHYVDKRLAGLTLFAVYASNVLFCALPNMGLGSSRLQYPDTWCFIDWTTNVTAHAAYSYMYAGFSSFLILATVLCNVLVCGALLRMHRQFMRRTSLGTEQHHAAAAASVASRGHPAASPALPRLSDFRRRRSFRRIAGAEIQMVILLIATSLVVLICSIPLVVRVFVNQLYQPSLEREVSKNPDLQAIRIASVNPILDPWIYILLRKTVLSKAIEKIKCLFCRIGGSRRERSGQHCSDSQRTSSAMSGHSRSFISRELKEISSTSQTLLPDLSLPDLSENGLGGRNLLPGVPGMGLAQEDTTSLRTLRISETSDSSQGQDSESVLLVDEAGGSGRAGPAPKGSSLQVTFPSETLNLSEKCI

Ki (human EP4 receptor) [nM]	Ki (human EP3 receptor) [nM]	EC50 (human EP2 receptor [1]) [nM]	Ki (human EP2 receptor [2]; read-out: Ki value of EP2 receptor binding affinity) [nM]	Ki (human EP4 receptor; [3H]PGE2 1 nM, Chem-1 membrane fraction, Table 4) [nM]	Ki (human EP3 receptor; [3H]PGE2 2 nM, Chem-1 membrane fraction, Table 4) [nM]	Ki (human EP2 receptor [2]; PGE2 receptor selectivity, Table 4, read-out: EP2 receptor binding affinity Ki value) [nM]	Ki (human EP2 receptor [2]; [3H]PGE2 10 nM, HEK293 membrane fraction, Table 2, read-out: Ki value of EP2 receptor binding affinity) [nM]	Structure (SMILES)
2800	> 10000							O=C(O)CNc1cccc(CN(Cc2ccc(-c3nccs3)cc2)S(=O)(=O)c2cccnc2)n1 [Example 11, (6-{(Pyridin-3-ylsulfonyl)[4-(thiazol-2-yl)benzyl]aminomethyl}pyridin-2-ylamino)acetic Acid Trifluoroacetate]
2900	> 10000	0.29	2.8					O=C(O)CNc1cccc(CN(Cc2ccc(-c3nccs3)cc2)S(=O)(=O)c2ccc(F)cc2)n1 [Example 4, (6-{(4-Fluorobenzenesulfonyl)[4-(thiazol-2-yl)benzyl]aminomethyl}pyridin-2-ylamino)acetic Acid]
		0.45		4800	> 10000	1.9	1.9	O=C(O)CNc1cccc(CN(Cc2ccc(-c3nccs3)cc2)S(=O)(=O)c2ccccn2)n1 [Example 3]
